Experimental data: patent US20130150430A1, “Methods for Impairing the P53/HDM2 Auto-Regulatory Loop in Multiple Myeloma Development Using mIR-192, mIR-194 and mIR-215” (THE OHIO STATE UNIVERSITY, priority 2011, published 2013)

Key:
GFP+/Luc+ MM1S cells = assay: In vivo homing model, iv injected transfected MM1S cells plus weekly iv miRNA; parameters: species or system NOD-SCID mice; details: for tumor burden (bioluminescence imaging): 5 wk post-injection, 10 μg iv weekly for 4 wk, vs Scr; for bone marrow engraftment of MM1s (human CD-138+ cells by FACS): 35 days after injection, Scr-treated mice ~25±15%
Experimental: FIG. 7C: In vivo confocal imaging. 8×10^6GFP+/Luc+ MM1s cells were transfected using either pre-miRNA-192, miR-194, miR-215 and Scr RNA oligos and then iv injected into mice immediately after transfection. After 1 wk the mice were miRNAs iv injected (10 ug) once a wk for 4 wk and the bioluminescence intensity was assessed before every injection.
FIG. 7D: Representative bioluminescence imaging (BLD after 5 wk from the injection.
FIG. 7E: Bone marrow cells from the mice used for the experiment were isolated and human CD-138 positive cells (engrafted cells) were detected using anti-CD-138 antibody by flow cytometry (P2 fraction).
As shown in FIG. 7B and FIG. 21C, IGF-1 (50 ng/ml) stimulated migration of MM cells, MM1s and RPMI-8226. To further examine the role of miRNA-192, miR-215 and miR-194 in MM cells, the inventors investigated the effect of these miRNAs on migration in vivo, using a homing model (Roccaro et al., Blood, 113:6669-6680 (2009)). Nine NOD-SCID mice (for each group) were intravenously injected with 8×10^6 of pre-miRNA-192-, -194 and -215 or Scr probe-transfected GFP^+/Lue^+ MM1S cells. One wk later, mice were iv-injected every week for 4 wk with an individual miRNA or Scr dissolved in PBS (10 μg for each mouse).
Mice were injected with 75 mg/kg of Luciferin (Xenogen, Hopkington, Mass.), and tumor growth was detected by bioluminescence 10 min after the injection. The home-built bioluminescence system used an electron multiplying CCD (Andor Technology Limited, Belfast, United Kingdom) with an exposure time of 30 sec, and an electron multiplication gain of 500 voltage gain×200, 5-by-5 binning, and with background subtraction. Images were analyzed using Image-J software (National Institutes of Health, Bethesda, Md.).
Animal studies were performed according to institutional guidelines. For the sub-cutaneous engraftment model 8 wk old male athymic nu/nu mice (Charles River Laboratories, Wilmington, Mass.) were maintained in accordance with IACUC procedures and guidelines. 8×10^6 of GFP/Luc+MM1s cells were suspended in 0.10 ml of extracellular matrix gel (BD Biosciences) and the mixture was injected subcutaneously into the right flank. […] Measurements of xenograft growth were performed, and tumor volume was estimated using the formula 4/3 a (L*W*H/8). Tumor size was assessed by digital caliper. […] Tumor size was assessed every 7 days by, bioluminescence images. Thirty-five days after injection, mice were analyzed by bioluminescence images and then sacrificed. MM1s bone marrow isolated cells were stained with anti-human CD-138 antibody (BD) and analyzed by FACS analysis. Statistical significance of differences between control and treated animals was evaluated using Student's t test. […]

[1] = test system: RPMI-8226 cells expressing mutant TP53; assay: MTS cell viability assay after miRNA transfection; assay type: cell-based, human; details: transfected RPMI-8226 cells
Description: (§1) FIG. 3A, FIG. 3B, FIG. 3C, FIG. 3D: MTS assay performed in MM1s (FIG. 3A), NCI-929 (FIG. 3B), KMS28BM (FIG. 3C) and RPMI-8226 (FIG. 3D) cell lines. Cells were transfected with miR-192, miR-215 and scrambled sequence (Scr) and were harvested at 24, 48, and 72 hrs after transfection. P values are indicated.
(§2) CD-138+ PCs obtained from new diagnosed MM subjects and isolated as previously described were transfected by using nucleoporation (LONZA) Cell Line Nucleofector Kit V (Cat#VCA-1003). MM1s, NCI-H929 cell lines were transfected by using nucleoporation (LONZA) Cell Line Nucleofector Kit V (Cat#VCA-1003). Instead for U266, KMS-28BM and RPMI-8226 Cell Line Nucleofector Kit C (Cat#VCA-1004) was used. Specifically for primary cells 1×10^6 CD-138+ PCs were resuspended in […] of V solution and 100 nM miRNA precursors (Ambion) was used for the transfection reaction. For MM cell lines 5×10^6 cells were re-suspended in 100 μl of nucleofector solution V/C and 100 nM of miRNAs precursor or 100 nM LNA miRNA antisense oligonucleotides (Ambion) was used for each transfection point. Protein lysates and total RNA were collected at the time indicated. miRNA processing and expression were verified by northern blot and stem-loop qRT-PCR.
(§3) Cells were plated in 96-well plates in triplicate and incubated at 37° C. in a 5% CO2 incubator. Cell viability was examined with 3-(4,5-dimethylthiazol-2-yl)-2,5-dipheniltetrazolium bromide (MTT)-Cell Titer 96AQueous One Solution Cell Proliferation Assay (Promega), according to the manufacturer's protocol. Metabolically active cells were detected by adding 20 μl of MTT to each well. After 1 hr incubation, the plates were analyzed in a Multi label Counter (Bio-Rad Laboratories). Apoptosis was assessed using Annexin V-FITC apoptosis detection kits followed by flow cytometric analysis. For Annexin V staining, MM cells (pre-miRNAs pool or Scrambled transfected) were treated with MI-219 at different concentrations (0, 2.5, 5.0, 10 μM) for 24 hr and then treated as for DNA content analysis, except that fixation was omitted and the Cells (5×10^5 per sample) were resuspended in PBS containing 25 μg/ml Annexin-V-FLUOS (Roche Applied Science) and 50 μg/ml PI prior to FACS analysis. The percentage of apoptosis indicated was corrected for background levels found in the corresponding untreated controls. The percentage of apoptotic cells was expressed as the mean±SD of three experiments.

[2] = test system: MM cells carrying WT TP53 (MM1s, NCI-H929, KMS28BM); assay: MTS cell viability assay after miRNA transfection; assay type: cell-based, human; details: transfected cells vs scrambled sequences, 24, 48, 72 hrs after transfection
Description: as §1, §2, §3

Substance	tumor burden (bioluminescence imaging) (GFP+/Luc+ MM1S cells)	bone marrow engraftment of MM1s (human CD-138+ cells by FACS) (GFP+/Luc+ MM1S cells) [%]	growth arrest (MTS assay) [1]	growth arrest (MTS assay) [2]
miR-215: microRNA, p53-activated, down-regulated in MM; transfected as miRNA precursor (Ambion) or lentivector; SEQ ID NO:58 (AUGACCUAUGAAUUGACAGAC; listed as RNA, chemistry not given here; listed as Homo sapiens)	nearly nonexistent	2±2	did not detect this effect	significant growth arrest
miR-192: microRNA, p53-activated, down-regulated in MM; transfected as miRNA precursor (Ambion) or lentivector; SEQ ID NO:56 (CUGACCUAUGAAUUGACAGCC; listed as RNA, chemistry not given here; listed as Homo sapiens)	nearly nonexistent	4±2	did not detect this effect	significant growth arrest
